Experimental data as given in ChEMBL document CHEMBL1151464 (2008).

Key:
Assay type in all cases: functional
Pseudomonas aeruginosa [1] = test: Antibacterial activity against Pseudomonas aeruginosa isolate 328 after 24 hrs by CLSI microdilution method
Pseudomonas aeruginosa [2] = test: Antibacterial activity against Pseudomonas aeruginosa isolate 358 after 24 hrs by CLSI microdilution method
Pseudomonas aeruginosa [3] = test: Antibacterial activity against Pseudomonas aeruginosa isolate 322 after 24 hrs by CLSI microdilution method
Pseudomonas aeruginosa [4] = test: Antibacterial activity against Pseudomonas aeruginosa isolate 350 after 24 hrs by CLSI microdilution method
Pseudomonas aeruginosa [5] = test: Antibacterial activity against Pseudomonas aeruginosa isolate 338 after 24 hrs by CLSI microdilution method
Acinetobacter baumannii [6] = test: Antibacterial activity against Acinetobacter baumannii isolate 931 after 24 hrs by CLSI microdilution method
Acinetobacter baumannii [7] = test: Antibacterial activity against Acinetobacter baumannii isolate 900 after 24 hrs by CLSI microdilution method
Acinetobacter baumannii [8] = test: Antibacterial activity against Acinetobacter baumannii isolate 930 after 24 hrs by CLSI microdilution method
Acinetobacter baumannii [9] = test: Antibacterial activity against Acinetobacter baumannii isolate 914 after 24 hrs by CLSI microdilution method
Pseudomonas aeruginosa [10] = test: Antibacterial activity against Pseudomonas aeruginosa isolate 376 after 24 hrs by CLSI microdilution method
Pseudomonas aeruginosa [11] = test: Antibacterial activity against Pseudomonas aeruginosa isolate 379 expressing VIM2 beta-lactamase after 24 hrs by CLSI microdilution method
Pseudomonas aeruginosa [12] = test: Antibacterial activity against Pseudomonas aeruginosa isolate 368 after 24 hrs by CLSI microdilution method
Acinetobacter baumannii [13] = test: Antibacterial activity against Acinetobacter baumannii isolate 901 after 24 hrs by CLSI microdilution method
Acinetobacter baumannii [14] = test: Antibacterial activity against Acinetobacter baumannii isolate 915 after 24 hrs by CLSI microdilution method
Acinetobacter baumannii [15] = test: Antibacterial activity against Acinetobacter baumannii isolate 894 after 24 hrs by CLSI microdilution method
Pseudomonas aeruginosa [16] = test: Antibacterial activity against Pseudomonas aeruginosa isolate 363 after 24 hrs by CLSI microdilution method
Pseudomonas aeruginosa [17] = test: Antibacterial activity against Pseudomonas aeruginosa isolate 361 after 24 hrs by CLSI microdilution method
Acinetobacter baumannii [18] = test: Antibacterial activity against Acinetobacter baumannii isolate 899 after 24 hrs by CLSI microdilution method
Acinetobacter baumannii [19] = test: Antibacterial activity against Acinetobacter baumannii isolate 917 after 24 hrs by CLSI microdilution method
Pseudomonas aeruginosa [20] = test: Antibacterial activity against Pseudomonas aeruginosa isolate 348 after 24 hrs by CLSI microdilution method
Acinetobacter baumannii [21] = test: Antibacterial activity against Acinetobacter baumannii isolate 924 after 24 hrs by CLSI microdilution method
Pseudomonas aeruginosa [22] = test: Antibacterial activity against Pseudomonas aeruginosa isolate 329 after 24 hrs by CLSI microdilution method
Acinetobacter baumannii [23] = test: Antibacterial activity against Acinetobacter baumannii isolate 922 after 24 hrs by CLSI microdilution method
Acinetobacter baumannii [24] = test: Antibacterial activity against Acinetobacter baumannii isolate 895 after 24 hrs by CLSI microdilution method
Pseudomonas aeruginosa [25] = test: Antibacterial activity against Pseudomonas aeruginosa isolate 352 after 24 hrs by CLSI microdilution method
Pseudomonas aeruginosa [26] = test: Antibacterial activity against Pseudomonas aeruginosa isolate 371 after 24 hrs by CLSI microdilution method
Acinetobacter baumannii [27] = test: Antibacterial activity against Acinetobacter baumannii isolate 898 after 24 hrs by CLSI microdilution method
Acinetobacter baumannii [28] = test: Antibacterial activity against Acinetobacter baumannii isolate 906 after 24 hrs by CLSI microdilution method
Pseudomonas aeruginosa [29] = test: Antibacterial activity against Pseudomonas aeruginosa isolate 357 after 24 hrs by CLSI microdilution method
Pseudomonas aeruginosa [30] = test: Antibacterial activity against Pseudomonas aeruginosa isolate 334 after 24 hrs by CLSI microdilution method
Acinetobacter baumannii [31] = test: Antibacterial activity against Acinetobacter baumannii isolate 908 after 24 hrs by CLSI microdilution method
Pseudomonas aeruginosa [32] = test: Antibacterial activity against Pseudomonas aeruginosa isolate 364 after 24 hrs by CLSI microdilution method
Pseudomonas aeruginosa [33] = test: Antibacterial activity against Pseudomonas aeruginosa isolate 331 after 24 hrs by CLSI microdilution method
Acinetobacter baumannii [34] = test: Antibacterial activity against Acinetobacter baumannii isolate 909 after 24 hrs by CLSI microdilution method
Pseudomonas aeruginosa [35] = test: Antibacterial activity against Pseudomonas aeruginosa isolate 367 after 24 hrs by CLSI microdilution method
Pseudomonas aeruginosa [36] = test: Antibacterial activity against Pseudomonas aeruginosa isolate 359 after 24 hrs by CLSI microdilution method
Pseudomonas aeruginosa [37] = test: Antibacterial activity against Pseudomonas aeruginosa isolate 369 after 24 hrs by CLSI microdilution method
Acinetobacter baumannii [38] = test: Antibacterial activity against Acinetobacter baumannii isolate 911 after 24 hrs by CLSI microdilution method
Pseudomonas aeruginosa [39] = test: Antibacterial activity against Pseudomonas aeruginosa isolate 354 after 24 hrs by CLSI microdilution method
Pseudomonas aeruginosa [40] = test: Antibacterial activity against Pseudomonas aeruginosa isolate 374 after 24 hrs by CLSI microdilution method
Pseudomonas aeruginosa [41] = test: Antibacterial activity against Pseudomonas aeruginosa isolate 320 after 24 hrs by CLSI microdilution method
Acinetobacter baumannii [42] = test: Antibacterial activity against Acinetobacter baumannii isolate 882 after 24 hrs by CLSI microdilution method
Pseudomonas aeruginosa [43] = test: Antibacterial activity against Pseudomonas aeruginosa isolate 346 after 24 hrs by CLSI microdilution method

Measured: MIC

COLISTIN
32 µg/mL: Acinetobacter baumannii [18]
4 µg/mL: Acinetobacter baumannii [6] | Acinetobacter baumannii [19] | Acinetobacter baumannii [23] | Pseudomonas aeruginosa [25] | Acinetobacter baumannii [28]
0.25 µg/mL: Acinetobacter baumannii [8] | Pseudomonas aeruginosa [10] | Pseudomonas aeruginosa [16]
8 µg/mL: Acinetobacter baumannii [13] | Acinetobacter baumannii [38]
0.5 µg/mL: Pseudomonas aeruginosa [3] | Acinetobacter baumannii [31] | Pseudomonas aeruginosa [33] | Pseudomonas aeruginosa [35] | Pseudomonas aeruginosa [36] | Pseudomonas aeruginosa [39]
2 µg/mL: Pseudomonas aeruginosa [1] | Acinetobacter baumannii [7] | Acinetobacter baumannii [9] | Pseudomonas aeruginosa [12] | Acinetobacter baumannii [21] | Acinetobacter baumannii [24] | Pseudomonas aeruginosa [29] | Pseudomonas aeruginosa [37] | Pseudomonas aeruginosa [43]
1 µg/mL: all other assays above
